The IC50 is the concentration that inhibits the measured activity by half.

T1 sequence (Q9BUB5 1-424 isoform Q9BUB5-2 T344D): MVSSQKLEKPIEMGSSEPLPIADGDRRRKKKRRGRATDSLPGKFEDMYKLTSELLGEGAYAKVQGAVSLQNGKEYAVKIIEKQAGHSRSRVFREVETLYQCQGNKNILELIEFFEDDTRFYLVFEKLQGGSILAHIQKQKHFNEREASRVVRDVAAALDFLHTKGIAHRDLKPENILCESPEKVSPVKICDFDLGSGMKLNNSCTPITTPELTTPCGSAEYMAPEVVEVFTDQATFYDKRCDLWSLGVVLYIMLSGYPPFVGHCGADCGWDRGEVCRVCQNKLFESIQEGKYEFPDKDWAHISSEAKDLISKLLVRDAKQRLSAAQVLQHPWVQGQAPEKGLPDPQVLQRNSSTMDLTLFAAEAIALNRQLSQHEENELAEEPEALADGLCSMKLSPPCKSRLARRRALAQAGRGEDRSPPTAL

One assay addresses T1, human full-length MKNK1 (Homo sapiens, UniProt Q9BUB5, T385D).
T1 construct: GST (N); purchased Carna Biosciences 02-145; host or cells: insect cells (baculovirus expression system)
Nature of the assay: MKNK1 kinase high ATP assay (TR-FRET).
Conditions: not given
Type of assay: biochemical. The essentials: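 Compound was preincubated 15 min at 22° C. with MKNK1 in 50 mM HEPES pH 7.5, 5 mM MgCl2, 1.0 mM DTT, then the reaction ran 30 min at 22° C. with 2 mM ATP and 0.06 μM biotinylated peptide (final).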
Take `CCOc1cc2[nH]ncc2cc1Nc1ncnc2sc3c(c12)CCC(C(=O)N1CCC(=O)CC1)C3` (racemic) [Example 211, (RS)-1-({4-[(6-Ethoxy-1H-indazol-5-yl)amino]-5,6,7,8-tetrahydro[1]benzothieno[2,3-d]pyrimidin-7-yl}carbonyl)piperidin-4-one]: the 50% inhibitory concentration (IC50) was 500 pM.

The assay is the same for the next values; noted with them: 2 mM ATP, after preincubation with MKNK1; read-out: MKNK1 IC50 (MKNK1 high ATP).
On to `CCOc1cc2[nH]ncc2cc1Nc1ncnc2sc3c(c12)CCC(C(=O)N1CCOCC1)C3` (racemic) [Example 212, (RS)-{4-[(6-Ethoxy-1H-indazol-5-yl)amino]-5,6,7,8-tetrahydro[1]benzothieno[2,3-d]pyrimidin-7-yl}(morpholin-4-yl)methanone], for which the IC50 came to 300 pM. `CC(C)Oc1cc2[nH]ncc2cc1Nc1ncnc2sc3c(c12)CCC(C(=O)N1CCCCC1)C3` (racemic) [Example 213, (RS)-Piperidin-1-yl(4-{[6-(propan-2-yloxy)-1H-indazol-5-yl]amino}-5,6,7,8-tetrahydro[1]benzothieno[2,3-d]pyrimidin-7-yl)methanone]: the half-maximal inhibitory concentration (IC50) came to 1500 pM. Take `CCN(CCO)C(=O)C1CCc2c(sc3ncnc(Nc4cc5cn[nH]c5cc4OC(C)C)c23)C1` (racemic) [Example 214, (RS)—N-ethyl-N-(2-hydroxyethyl)-4-{[6-(propan-2-yloxy)-1H-indazol-5-yl]amino}-5,6,7,8-tetrahydro[1]benzothieno[2,3-d]pyrimidine-7-carboxamide]: the 50% inhibitory concentration (IC50) was 300 pM. Turning to `CC(C)Oc1cc2[nH]ncc2cc1Nc1ncnc2sc3c(c12)CCC(C(=O)N(C)C(C)C)C3` (racemic) [Example 215, (RS)—N-Methyl-N-(propan-2-yl)-4-{[6-(propan-2-yloxy)-1H-indazol-5-yl]amino}-5,6,7,8-tetrahydro[1]benzothieno[2,3-d]pyrimidine-7-carboxamide], the IC50 was determined as 500 pM. Take `CC(C)Oc1cc2[nH]ncc2cc1Nc1ncnc2sc3c(c12)CCC(C(=O)N(C)CC(F)F)C3` (racemic) [Example 216, (RS)—N-(2,2-Difluoroethyl)-N-methyl-4-{[6-(propan-2-yloxy)-1H-indazol-5-yl]amino}-5,6,7,8-tetrahydro[1]benzothieno[2,3-d]pyrimidine-7-carboxamide]: the IC50 came to 500 pM. Take `CCN(C)C(=O)C1CCc2c(sc3ncnc(Nc4cc5cn[nH]c5cc4OC(C)C)c23)C1` (racemic) [Example 217, (RS)—N-Ethyl-N-methyl-4-{[6-(propan-2-yloxy)-1H-indazol-5-yl]amino}-5,6,7,8-tetrahydro[1]benzothieno[2,3-d]pyrimidine-7-carboxamide]: the IC50 amounted to 1000 pM. For the molecule `CC(C)Oc1cc2[nH]ncc2cc1Nc1ncnc2sc3c(c12)CCC(C(=O)N1CCOCC1)C3` (racemic) [Example 218, (RS)-Morpholin-4-yl(4-{[6-(propan-2-yloxy)-1H-indazol-5-yl]amino}-5,6,7,8-tetrahydro[1]benzothieno[2,3-d]pyrimidin-7-yl)methanone], the half-inhibitory concentration (IC50) was determined as 1200 pM.

For `CC(C)Oc1cc2[nH]ncc2cc1Nc1ncnc2sc3c(c12)CCC(C(=O)N1CCC1)C3` (racemic) [Example 219, (RS)-Azetidin-1-yl(4-{[6-(propan-2-yloxy)-1H-indazol-5-yl]amino}-5,6,7,8-tetrahydro[1]benzothieno[2,3-d]pyrimidin-7-yl)methanone], the IC50 stood at 500 pM.

For `CC(C)Oc1cc2[nH]ncc2cc1Nc1ncnc2sc3c(c12)CCC(C(=O)N(C)CC1CC1)C3` (racemic) [Example 220, (RS)—N-(Cyclopropylmethyl)-N-methyl-4-{[6-(propan-2-yloxy)-1H-indazol-5-yl]amino}-5,6,7,8-tetrahydro[1]benzothieno[2,3-d]pyrimidine-7-carboxamide], the IC50 was determined as 600 pM.

Regarding `CC(C)Oc1cc2[nH]ncc2cc1Nc1ncnc2sc3c(c12)CCC(C(=O)N1CCCC1)C3` (racemic) [Example 221, (RS)-(4-{[6-(Propan-2-yloxy)-1H-indazol-5-yl]amino}-5,6,7,8-tetrahydro[1]benzothieno[2,3-d]pyrimidin-7-yl)(pyrrolidin-1-yl)methanone], the IC50 is 700 pM. `CC(C)Oc1cc2[nH]ncc2cc1Nc1ncnc2sc3c(c12)CCC(C(=O)N1CC2(CCS2(=O)=O)C1)C3` (racemic) [Example 222, (RS)-(1,1-Dioxido-1-thia-6-azaspiro[3.3]hept-6-yl)(4-{[6-(propan-2-yloxy)-1H-indazol-5-yl]amino}-5,6,7,8-tetrahydro[1]benzothieno[2,3-d]pyrimidin-7-yl)methanone]: the IC50 turned out to be 900 pM. As for `CCOc1cc2[nH]ncc2cc1Nc1ncnc2sc3c(c12)CCC(C(=O)N1CCC1)C3` (racemic) [Example 223, (RS)-Azetidin-1-yl{4-[(6-ethoxy-1H-indazol-5-yl)amino]-5,6,7,8-tetrahydro[1]benzothieno[2,3-d]pyrimidin-7-yl}methanone], the IC50 came out at 1500 pM.

Take `CCOc1cc2[nH]ncc2cc1Nc1ncnc2sc3c(c12)CCC(C(=O)N(C)C(C)C)C3` (racemic) [Example 224, (RS)-4-[(6-Ethoxy-1H-indazol-5-yl)amino]-N-isopropyl-N-methyl-5,6,7,8-tetrahydro[1]benzothieno[2,3-d]pyrimidine-7-carboxamide]: the IC50 amounted to 600 pM. The same measure, in the same setting: next, `CCOc1cc2[nH]ncc2cc1Nc1ncnc2sc3c(c12)CCC(C(=O)N(C)CCO)C3` (racemic) [Example 225, (RS)-4-[(6-Ethoxy-1H-indazol-5-yl)amino]-N-(2-hydroxyethyl)-N-methyl-5,6,7,8-tetrahydro[1]benzothieno[2,3-d]pyrimidine-7-carboxamide]: 300 pM. Take `CCOc1cc2[nH]ncc2cc1Nc1ncnc2sc3c(c12)CCC(C(=O)N(C)CC(F)F)C3` (racemic) [Example 226, (RS)—N-(2,2-Difluoroethyl)-4-[(6-ethoxy-1H-indazol-5-yl)amino]-N-methyl-5,6,7,8-tetrahydro[1]benzothieno[2,3-d]pyrimidine-7-carboxamide]: the IC50 was 700 pM. As to `CCOc1cc2[nH]ncc2cc1Nc1ncnc2sc3c(c12)CCC(C(=O)N1CCCC1)C3` (racemic) [Example 228, (RS)-{4-[(6-Ethoxy-1H-indazol-5-yl)amino]-5,6,7,8-tetrahydro[1]benzothieno[2,3-d]pyrimidin-7-yl}(pyrrolidin-1-yl)methanone], the concentration for half-maximal inhibition (IC50) came out at 200 pM.

Consider `CCOc1cc2[nH]ncc2cc1Nc1ncnc2sc3c(c12)CCC(C(=O)N(C)CC)C3` (racemic) [Example 229, (RS)-4-[(6-Ethoxy-1H-indazol-5-yl)amino]-N-ethyl-N-methyl-5,6,7,8-tetrahydro[1]benzothieno[2,3-d]pyrimidine-7-carboxamide], for which the IC50 is 700 pM.

As to `CC(C)Oc1cc2[nH]ncc2cc1Nc1ncnc2sc3c(c12)CCC(C(=O)N(C)CCO)C3` (racemic) [Example 230, (RS)—N-(2-Hydroxyethyl)-4-[(6-isopropoxy-1H-indazol-5-yl)amino]-N-methyl-5,6,7,8-tetrahydro[1]benzothieno[2,3-d]pyrimidine-7-carboxamide], the concentration for half-maximal inhibition (IC50) was 200 pM.

Consider `CCOc1cc2[nH]ncc2cc1Nc1ncnc2sc3c(c12)CCC(C(=O)N(CC)CCO)C3` (racemic) [Example 231, (RS)-4-[(6-Ethoxy-1H-indazol-5-yl)amino]-N-ethyl-N-(2-hydroxyethyl)-5,6,7,8-tetrahydro[1]benzothieno[2,3-d]pyrimidine-7-carboxamide], for which the IC50 turned out to be 300 pM.

As for `COc1cc2[nH]ncc2cc1Nc1ncnc2sc3c(c12)CCC(C(=O)N(CCO)CCO)C3` (racemic) [Example 234, (RS)—N, N-Bis(2-hydroxyethyl)-4-[(6-methoxy-1H-indazol-5-yl)amino]-5,6,7,8-tetrahydro[1]benzothieno[2,3-d]pyrimidine-7-carboxamide], the IC50 amounted to 400 pM. Regarding `CCOc1cc2[nH]ncc2cc1Nc1ncnc2sc3c(c12)CCC(C(=O)N(C)C1CC1)C3` (racemic) [Example 235, (RS)—N—Cyclopropyl-4-[(6-ethoxy-1H-indazol-5-yl)amino]-N-methyl-5,6,7,8-tetrahydro[1]benzothieno[2,3-d]pyrimidine-7-carboxamide], the IC50 stood at 500 pM. In the case of `CCOc1cc2[nH]ncc2cc1Nc1ncnc2sc3c(c12)CCC(C(=O)N(CC)C(C)C)C3` (racemic) [Example 236, (RS)-4-[(6-Ethoxy-1H-indazol-5-yl)amino]-N-ethyl-N-(propan-2-yl)-5,6,7,8-tetrahydro[1]benzothieno[2,3-d]pyrimidine-7-carboxamide], the 50% inhibitory concentration (IC50) amounted to 2800 pM. For `COc1cc2[nH]ncc2cc1Nc1ncnc2sc3c(c12)CCC(C(=O)N1CC(C#N)C1)C3` (racemic) [Example 237, (RS)-1-({4-[(6-Methoxy-1H-indazol-5-yl)amino]-5,6,7,8-tetrahydro[1]benzothieno[2,3-d]pyrimidin-7-yl}carbonyl)azetidine-3-carbonitrile], the half-inhibitory concentration (IC50) is 300 pM. For the molecule `CCOc1cc2[nH]ncc2cc1Nc1ncnc2sc3c(c12)CCC(C(=O)N(C)C(C)(C)C)C3` (racemic) [Example 238, (RS)—N-tert-Butyl-4-[(6-ethoxy-1H-indazol-5-yl)amino]-N-methyl-5,6,7,8-tetrahydro[1]benzothieno[2,3-d]pyrimidine-7-carboxamide], the half-maximal inhibitory concentration (IC50) stood at 1500 pM. With `CCOc1cc2[nH]ncc2cc1Nc1ncnc2sc3c(c12)CCC(C(=O)N1CC2(COC2)C1)C3` (racemic) [Example 239, (RS)-{4-[(6-Ethoxy-1H-indazol-5-yl)amino]-5,6,7,8-tetrahydro[1]benzothieno[2,3-d]pyrimidin-7-yl}(2-oxa-6-azaspiro[3.3]hept-6-yl)methanone], the IC50 was determined as 400 pM. On to `CCOc1cc2[nH]ncc2cc1Nc1ncnc2sc3c(c12)CCC(C(=O)N(C)CC1CC1)C3` (racemic) [Example 240, (RS)—N-(Cyclopropylmethyl)-4-[(6-ethoxy-1H-indazol-5-yl)amino]-N-methyl-5,6,7,8-tetrahydro[1]benzothieno[2,3-d]pyrimidine-7-carboxamide], for which the IC50 is 1100 pM.

For the origin of these results see patent publication US9540392B2, “Thienopyrimidines” (BAYER PHARMA AKTIENGESELLSCHAFT, priority 2012, dated 2017).
